Where two headings read alike, the source gives them in different places.
Assays:
[1] = tested on: HCV replicon (BB7 sequence) in Huh-7-Clone A cells; assay: HCV replicon assay: ELISA of NS5A protein in replicon-containing cells (Inhibition of Viral RNA Replication); assay type: cell-based; settings: Hepatitis C virus; HCV replicon assay; ranges of EC50; read-out: Replicon
Summary of the method: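 EC50 taken from an 8-point serially diluted dose curve, with NS5A level as read-out: fixed cells probed with primary monoclonal and HRP-conjugated secondary, TMB developed 30 min, OD 650 nm. Compound exposure 72 h in Huh-7-Clone A replicon cells (BB7 sequence).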

HCV NS5B = molecular target: T1, HCV NS5B (Hepatitis C virus genotype 1b, UniProt Q9WMX2); assay: Inhibition of viral RNA-dependent RNA polymerase (RdRp), in vitro biochemical assay; design: species or system HCV genotype 1b virus (BB7); settings: HCV NS5B RdRp, BB7, read-out: HCV pol-BB7 IC50
T1 construct: fusion protein, of which the carboxyl terminal 21 amino acids were removed to enhance its solubility; His tag (GSHHHHHH); made in house; host or cells: E. coli
Summary of the method: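 IC50 values are the concentrations that halve in vitro RNA synthesis by HCV NS5B polymerase. The enzyme was a C-terminally truncated (Δ21), His-tagged genotype 1b (BB7 consensus) protein purified from E. coli.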

SMILES	EC50 [1] [nM]	IC50 (HCV NS5B; class symbols A-D) [nM]	IC50 (HCV NS5B; activity class) [nM]
CNC(=O)c1c(-c2ccc(F)cc2)oc2cc(-c3c(C4CC4)noc3COC)c(OC)cc12 [Example 310, 6-(3-Cyclopropyl-5-methoxymethyl-isoxazol-4-yl)-2-(4-fluoro-phenyl)-5-methoxy-benzofuran-3-carboxylic acid methylamide]	< 1000	≤ 500	–
CNC(=O)c1c(-c2ccc(F)cc2)oc2cc(N(C)S(C)(=O)=O)c(OCc3ccc(C(=O)O)cc3)cc12 [Example 311, 4-[2-(4-Fluoro-phenyl)-6-(methanesulfonyl-methyl-amino)-3-methylcarbamoyl-benzofuran-5-yloxymethyl]-benzoic acid]	< 10000	≤ 500	–
CNC(=O)c1c(-c2ccc(F)cc2)oc2cc(N(C)S(C)(=O)=O)c(OCc3cccc(C(=O)O)c3)cc12 [Example 312, 3-[2-(4-Fluoro-phenyl)-6-(methanesulfonyl-methyl-amino)-3-methylcarbamoyl-benzofuran-5-yloxymethyl]-benzoic acid]	< 1000	≤ 500	–
CNC(=O)c1c(-c2ccc(F)cc2)oc2cc(-c3cc(COC)on3)c(OC)cc12 [Example 313, 2-(4-Fluoro-phenyl)-5-methoxy-6-(5-methoxymethyl-isoxazol-3-yl)-benzofuran-3-carboxylic acid methylamide]	< 1000	≤ 500	–
CNC(=O)c1c(-c2ccc(F)cc2)oc2cc(-c3c(C)noc3C)c(O)cc12 [Example 314, 6-(3,5-Dimethyl-isoxazol-4-yl)-2-(4-fluoro-phenyl)-5-hydroxy-benzofuran-3-carboxylic acid methylamide]	< 1000	≤ 500	–
CNC(=O)c1c(-c2ccc(F)cc2)oc2cc(C3CNC(=O)C3)c(OC)cc12 (centres unmarked) [Example 315, 2-(4-Fluoro-phenyl)-5-methoxy-6-(5-oxo-pyrrolidin-3-yl)-benzofuran-3-carboxylic acid methylamide]	< 10000	≤ 500	–
CNC(=O)c1c(-c2ccc(F)cc2)oc2cc(N(CCOC(F)(F)F)S(C)(=O)=O)c(OC)cc12 [Example 316, 2-(4-Fluoro-phenyl)-6-[methanesulfonyl-(2-trifluoromethoxy-ethyl)-amino]-5-methoxy-benzofuran-3-carboxylic acid methylamide]	< 1000	500 to 5000	–
CNC(=O)c1c(-c2ccc(F)cc2)oc2cc(-c3cc[nH]c3)c(OC)cc12 [Example 317, 2-(4-Fluoro-phenyl)-5-methoxy-6-(1H-pyrrol-3-yl)-benzofuran-3-carboxylic acid methylamide]	< 1000	5000 to 30000	–
CCOc1cc(F)ccc1-c1oc2cc(-c3c(C)noc3C)c(OC)cc2c1C(=O)NC [Example 318, 6-(3,5-Dimethyl-isoxazol-4-yl)-2-(2-ethoxy-4-fluoro-phenyl)-5-methoxy-benzofuran-3-carboxylic acid methylamide]	> 30000	≤ 500	–
CNC(=O)c1c(-c2ccc(F)cc2)oc2cc(N(C)S(C)(=O)=O)c(OCc3cscn3)cc12 [Example 319, 2-(4-Fluoro-phenyl)-6-(methanesulfonyl-methyl-amino)-5-(thiazol-4-ylmethoxy)-benzofuran-3-carboxylic acid methylamide]	< 1000	500 to 5000	–
CNC(=O)c1c(-c2ccc(F)cc2)oc2cc(N(C)S(C)(=O)=O)c(OCc3csc(C)n3)cc12 [Example 320, 2-(4-Fluoro-phenyl)-6-(methanesulfonyl-methyl-amino)-5-(2-methyl-thiazol-4-ylmethoxy)-benzofuran-3-carboxylic acid methylamide]	< 1000	≤ 500	–
CNC(=O)c1c(-c2ccc(F)cc2)oc2cc(N(C)S(C)(=O)=O)c(Oc3nc(CCl)ns3)cc12 [Example 321, 5-(3-Chloromethyl-[1,2,4]thiadiazol-5-yloxy)-2-(4-fluoro-phenyl)-6-(methanesulfonyl-methyl-amino)-benzofuran-3-carboxylic acid methylamide]	< 1000	≤ 500	–
CNC(=O)c1c(-c2ccc(F)cc2)oc2cc(N(CC(O)c3ccc(F)cc3)S(C)(=O)=O)c(OC(C)C)cc12 (centres unmarked) [Example 322, 2-(4-Fluoro-phenyl)-6-{[2-(4-fluoro-phenyl)-2-hydroxy-ethyl]-methanesulfonyl-amino}-5-isopropoxy-benzofuran-3-carboxylic acid methylamide]	< 1000	≤ 500	–
CNC(=O)c1c(-c2ccc(F)cc2)oc2cc(-c3ncnn3C)c(OC)cc12 [Example 323, 2-(4-Fluoro-phenyl)-5-methoxy-6-(2-methyl-2H-[1,2,4]triazol-3-yl)-benzofuran-3-carboxylic acid methylamide]	< 1000	≤ 500	–
CNC(=O)c1c(-c2ccc(F)cc2)oc2cc(N(C)S(C)(=O)=O)c(OCc3c(C)noc3C)cc12 [Example 324, 5-(3,5-Dimethyl-isoxazol-4-ylmethoxy)-2-(4-fluoro-phenyl)-6-(methanesulfonyl-methyl-amino)-benzofuran-3-carboxylic acid methylamide]	< 1000	≤ 500	–
CNC(=O)c1c(-c2ccc(F)cc2)oc2cc(N(C)S(C)(=O)=O)c(OCc3cccc(OC)c3)cc12 [Example 325, 2-(4-Fluoro-phenyl)-6-(methanesulfonyl-methyl-amino)-5-(3-methoxy-benzyloxy)-benzofuran-3-carboxylic acid methylamide]	< 1000	≤ 500	–
CNC(=O)c1c(-c2ccc(F)cc2)oc2cc(N(CC(C)C)S(C)(=O)=O)c(O)cc12 [Example 326, 2-(4-Fluoro-phenyl)-5-hydroxy-6-(isobutyl-methanesulfonyl-amino)-benzofuran-3-carboxylic acid methylamide]	< 30000	500 to 5000	–
CNC(=O)c1c(-c2ccc(F)cc2)oc2cc(N(C)S(C)(=O)=O)c(OCc3ccc(OC)cc3)cc12 [Example 327, 2-(4-Fluoro-phenyl)-6-(methanesulfonyl-methyl-amino)-5-(4-methoxy-benzyloxy)-benzofuran-3-carboxylic acid methylamide]	< 1000	≤ 500	–
CNC(=O)c1c(-c2ccc(F)cc2)oc2cc(N(C)S(C)(=O)=O)c(OCc3ccncc3)cc12 [Example 328, 2-(4-Fluoro-phenyl)-6-(methanesulfonyl-methyl-amino)-5-(pyridin-4-ylmethoxy)-benzofuran-3-carboxylic acid methylamide]	< 1000	≤ 500	–
CNC(=O)c1c(-c2ccc(F)cc2)oc2cc(N(C)S(C)(=O)=O)c(OCc3ccc4c(c3)C(=O)OC(C)(C)O4)cc12 [Example 329, 5-(2,2-Dimethyl-4-oxo-4H-benzo[1,3]dioxin-6-ylmethoxy)-2-(4-fluoro-phenyl)-6-(methanesulfonyl-methyl-amino)-benzofuran-3-carboxylic acid methylamide]	< 1000	≤ 500	–
CNC(=O)c1c(-c2ccc(F)cc2)oc2cc(N(CC3CC3)S(C)(=O)=O)c(OC)cc12 [Example 330, 6-(Cyclopropylmethyl-methanesulfonyl-amino)-2-(4-fluoro-phenyl)-5-methoxy-benzofuran-3-carboxylic acid methylamide]	< 1000	≤ 500	–
CNC(=O)CN(c1cc2oc(-c3ccc(F)cc3)c(C(=O)NC)c2cc1OC)S(C)(=O)=O [Example 331, 2-(4-Fluoro-phenyl)-6-(methanesulfonyl-methylcarbamoylmethyl-amino)-5-methoxy-benzofuran-3-carboxylic acid methylamide]	< 1000	–	≤ 500
CNC(=O)c1c(-c2ccc(F)cc2)oc2cc(NS(C)(=O)=O)c(F)cc12 [Example 332, 5-Fluoro-2-(4-fluoro-phenyl)-6-methanesulfonylamino-benzofuran-3-carboxylic acid methylamide]	< 10000	–	500 to 5000
CCN(c1cc2oc(-c3ccc(F)cc3)c(C(=O)NC)c2cc1F)S(C)(=O)=O [Example 333, 6-(Ethyl-methanesulfonyl-amino)-5-fluoro-2-(4-fluoro-phenyl)-benzofuran-3-carboxylic acid methylamide]	< 10000	–	≤ 500
CNC(=O)c1c(-c2ccc(F)cc2)oc2cc(C3CCN(S(C)(=O)=O)C3)c(OC)cc12 (centres unmarked) [Example 334, 2-(4-Fluoro-phenyl)-6-(1-methanesulfonyl-pyrrolidin-3-yl)-5-methoxy-benzofuran-3-carboxylic acid methylamide]	< 1000	–	≤ 500
CCc1cc2c(C(=O)NC)c(-c3ccc(F)cc3)oc2cc1N(CCOC)S(C)(=O)=O [Example 335, 5-Ethyl-2-(4-fluoro-phenyl)-6-[methanesulfonyl-(2-methoxy-ethyl)-amino]-benzofuran-3-carboxylic acid methylamide]	< 1000	–	≤ 500
CNC(=O)c1c(-c2ccc(F)cc2)oc2cc(-c3c(COC)noc3C)c(OC)cc12 [Example 336, 2-(4-Fluoro-phenyl)-5-methoxy-6-(3-methoxymethyl-5-methyl-isoxazol-4-yl)-benzofuran-3-carboxylic acid methylamide]	< 1000	–	≤ 500
CCc1cc2c(C(=O)NC)c(-c3ccc(F)cc3)oc2cc1N(CCF)S(C)(=O)=O [Example 337, 5-Ethyl-6-[(2-fluoro-ethyl)-methanesulfonyl-amino]-2-(4-fluoro-phenyl)-benzofuran-3-carboxylic acid methylamide]	< 1000	–	≤ 500
